Residues, ends and D or L forms follow the SMILES beside them. *: point of attachment. Cbz = O=C(OCc1ccccc1)*
T1: E3RS-hnRNP-U complex (Homo sapiens, UniProt Q9Y297)
T1 construct: expressed in transfected cells; host or cells: 293T cells
T1 sequence (Q9Y297 1-605): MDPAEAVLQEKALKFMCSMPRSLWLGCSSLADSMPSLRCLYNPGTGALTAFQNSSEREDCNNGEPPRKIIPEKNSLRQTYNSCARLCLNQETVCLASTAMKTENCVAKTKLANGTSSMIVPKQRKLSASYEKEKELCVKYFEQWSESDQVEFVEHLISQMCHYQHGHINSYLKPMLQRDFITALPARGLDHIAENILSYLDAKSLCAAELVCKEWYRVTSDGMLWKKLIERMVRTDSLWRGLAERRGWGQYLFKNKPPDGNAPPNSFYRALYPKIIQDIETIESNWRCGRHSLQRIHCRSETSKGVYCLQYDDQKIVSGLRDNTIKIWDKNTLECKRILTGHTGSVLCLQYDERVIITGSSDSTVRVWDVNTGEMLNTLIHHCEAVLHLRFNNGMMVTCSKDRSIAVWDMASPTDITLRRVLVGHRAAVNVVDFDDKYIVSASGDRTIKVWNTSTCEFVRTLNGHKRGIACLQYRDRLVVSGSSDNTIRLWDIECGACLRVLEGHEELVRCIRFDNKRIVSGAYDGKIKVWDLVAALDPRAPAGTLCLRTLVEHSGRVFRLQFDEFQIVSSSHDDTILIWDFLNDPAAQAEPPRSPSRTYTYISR

B1: pIκBα: IKK phosphorylated IκBα protein (protein)
chain: MFQAAERPQEWAMEGPRDGLKKERLLDDRHDSGLDSMKDEEYEQMVKELQEIRLEPQEVPRGSEPWKQQLTEDGDSFLHLAIIHEEKALTMEVIRQVKGDLAFLNFQNNLQQTPLHLAVITNQPEIAEALLGAGCDPELRDFRGNTPLHLACEQGCLASVGVLTQSCTTPHLHSILKATNYNGHTCLHLASIHGYLGIVELLVSLGADVNAQEPCNGRTALHLAVDLQNPDLVSLLLKCGADVNRVTYQGYSPYQLTWGRPSTRIQQQLGQLTLENLQMLPESEDEESYDTESEFTEFTEDELPYDDCVFGGQRLTL

Tests used:
[1] = tested on: Vpu-mediated GFP-CD4 degradation; test: Vpu-mediated CD4 degradation assay (GFP-CD4, tet-off Vpu); format: cell-based, human; conditions: 293 cells, pretreatment of transfected cells, Western blotting (FIG. 7C)
Method: The inducible system consists of the tetracycline (Tc)-responsive promoter system developed by Gossen and Bujard (1992). Vpu and GFP-CD4 expression were performed in either HeLa Tet-off gene expression system (CLONTECH). These stably transfected HeLa cells carry the pTet-Off regulator plasmid encoding a tetracycline-controlled transactivator (tTA), which also includes a neomycin-resistance gene. Alternatively 293 cells were transfected with the inducible constructs and the pTet-Off plasmid (Lavon et al., 2000). […]
The ubiquitin-ligase activity is measured as a function of Vpu-mediated GFP-CD4 degradation (FIG. 7A). […] The N-terminal CD4 sequence, including the first three Ig-like domains (but preserving the CD4 signal sequence), was replaced with the human EGFP sequence for allowing the quantitative measurement of the fusion protein through the GFP fluorescence signal.
A GFP-CD4 expression plasmid was co-transfected into 293 cells together with expression plasmids for doxycycline (DOX)-regulated HIV-Vpu and tTA (tetracycline transactivator) plasmid. Vpu and GFP-CD4 expression were detected by Western blotting. […]

E3RS-hnRNP-U complex = molecular target: T1, E3RS-hnRNP-U complex; test: Dissociation of E3RS from immobilized hnRNP-U by IκBα species; format: binding; conditions: anti-hnRNP-U immunobeads from Flag-E3RS transfected 293T cells; Western blot (FIG. 4D)
Method: Flag-E3RS and endogenous hnRNP-U from 293T cells were used as an E3 source and Flag-WD was used as a negative control. 100 μg protein extract was immunoprecipitated using 2 μl anti-Flag beads or 0.21 μl anti-hnRNP-U antibodies. IκB was phosphorylated by the constitutively-active IκB kinase (IKK2; (Mercurio et al., 1997)) and subjected to binding and ubiquitination assays with each of the above E3 sources, as described previously by (Yaron et al., 1998).
Next, 293T cells transfected with Flag-E3RS were immunoprecipitated using anti-Flag (lanes 1,2) or anti-hnRNP-U (FIG. 4D, lanes 3-7) antibodies. IκBα (FIG. 4D, lanes 1,3,4) and IKK phosphorylated IκBα (pIκBα; FIG. 4D, lanes 2,5-7) were incubated with the immunobeads, after which, both the immunobeads (slurry (S); FIG. 4D, lanes 1-3,5) and the post-slurry fractions (PS; FIG. 4D, lanes 4,6) were analyzed by Western blot directly, or after immunoprecipitation of the post-slurry fraction (same as in FIG. 4D, lane 6) with anti-Flag beads (FIG. 4D, lane 7).

Row | Molecule | GFP-CD4 signal upon Vpu expression [1] | dissociation of E3RS from immobilized hnRNP-U into the post-slurry fraction (E3RS-hnRNP-U complex)
1 | CC(C)C[C@@H](C=O)NC(=O)[C@H](CC(C)C)NC(=O)[C@H](CC(C)C)NC(=O)OCc1ccccc1 [MG132] (Cbz-Leu-Leu-Leu-aldehyde) | preservation of the GFP-CD4 signal | 
2 | B1 |  | induced the dissociation of the E3RS from the immobilized hnRNP-U
